Here are results for four compounds from patent publication US10829719B2, “Sodium methyl glycine-N,N-diacetic acid compound, process to prepare it and use thereof” (NOURYON CHEMICALS INTERNATIONAL B.V., priority 2017, dated 2020).

Series [1] is described as follows: Dissolution rate of granules in deionized water monitored by conductivity. In kind it is physicochemical. The note with it: for time needed (s) to reach 75% dissolved / time needed (s) to reach 90% dissolved / time needed (s) to reach 95% dissolved / time needed (s) to reach 100% dissolved: 1 gram granules in 75 gram deionized water, stirred, trisodium salt. As to the method:
The dissolution rate of these granules was compared to the dissolution rate of the original granules that were not heat treated:
1 gram of granules was added in one shot to a stirred container filled with 75 gram deionized water, equipped with a conductivity measurement probe. The conductivity of the dispersion was monitored in time. The degree of dissolution was determined by dividing the conductivity by the value finally obtained when the sample was fully dissolved yielding a stable level of conductivity.
(The measurements were done in duplicate yielding the same result)

Series [2] in a line: Free flowability and weight gain after storage in climate chamber at 40° C. and 75% relative humidity. It counts as physicochemical. The note with it: mean of three dishes; for fraction free flowing (%) Original / weight gain (%) Original: non-treated sample, stored 5 days at 40° C. and 75% relative humidity; for fraction free flowing (%) Treated / weight gain (%) Treated: sample dried 4 hours at 160° C., then stored 5 days at 40° C. and 75% relative humidity. As to the method: The compounds obtained in Examples 1 and 3 were dried 4 hours at 160° C. Subsequently, 5 grams of each sample were distributed evenly over the bottom of a (separate) crystallization dish (diameter 10 cm) and stored for 5 days in a climate chamber at 40° C. and 75% relative humidity. As a reference also the non-treated samples, as well as a sample of Trilon M granules (Na3-MGDA solid ex BASF), were stored in the same climate chamber at the same time.
To improve reliability of the testing, three separate dishes of all samples were stored at the same conditions.
After five days the dishes were weighed and the gain in mass of the contents was determined.
To estimate the amount of material that was still free flowing, the dishes were first tapped gently and then were mounted vertically to estimate the amount of material that remained sticking on the glass surface versus the amount of granular material ending on the bottom.

`CC(C(=O)[O-])N(CC(=O)[O-])CC(=O)[O-].[Na+].[Na+].[Na+]` (single isomer, unassigned) [type I, methyl glycine-N,N-diacetic acid trisodium salt, reference compound]: in series [1], the “time needed (s) to reach 75% dissolved” value came to 40 s, the “time needed (s) to reach 90% dissolved” value is given as 110 s, the “time needed (s) to reach 95% dissolved” value came to 160 s and the “time needed (s) to reach 100% dissolved” value is 260 s.

As to `CC(C(=O)[O-])N(CC(=O)[O-])CC(=O)[O-].[Na+].[Na+].[Na+]` (single isomer, unassigned) [type III, methyl glycine-N,N-diacetic acid trisodium salt], in series [1], the “time needed (s) to reach 75% dissolved” value is listed as 22 s, the “time needed (s) to reach 90% dissolved” value was determined as 36 s, the “time needed (s) to reach 95% dissolved” value came out at 45 s and the “time needed (s) to reach 100% dissolved” value turned out to be 90 s. Besides, the “dissolution compared to type I containing granules” value in series [1] (type III containing granules versus original, not heat treated type I granules) is reported as “dissolve much faster”.

On to `CC(C(=O)[O-])N(CC(=O)[O-])CC(=O)[O-].[Na+].[Na+].[Na+]` (centres unmarked) [Example 1, Na3-MGDA], for which, in series [2], the “fraction free flowing (%) Original” value is 40%, the “weight gain (%) Original” value is recorded as 11%, the “fraction free flowing (%) Treated” value amounted to 65% and the “weight gain (%) Treated” value is recorded as 27%.

With `CC(C(=O)[O-])N(CC(=O)[O-])CC(=O)[O-].[Na+].[Na+].[Na+]` (centres unmarked) [Example 3, Na3-MGDA], in series [2], the “fraction free flowing (%) Original” value was 20%, the “weight gain (%) Original” value came to 17%, the “fraction free flowing (%) Treated” value is recorded as 80% and the “weight gain (%) Treated” value is given as 29%.
